These results are taken from article PMC12952243, “Dual targeting of the mitochondrial Lon peptidase 1 and the chymotrypsin-like proteasome activity as a potential therapeutic strategy in malignant astrocytoma models” (Pharmacological research, 2024).

Molecules are shown by their SMILES.

The term IC50 denotes the concentration at which inhibition is half-maximal. Read a high IC50 as weaker potency in that assay.

The target of this assay is T1, Mitochondrial Lon Peptidase 1 (LonP1) (Homo sapiens, UniProt P36776).
T1 construct: LonP1 immunopurified from mitochondria of HOG cells overexpressing LonP1
T1 sequence (P36776 68-959): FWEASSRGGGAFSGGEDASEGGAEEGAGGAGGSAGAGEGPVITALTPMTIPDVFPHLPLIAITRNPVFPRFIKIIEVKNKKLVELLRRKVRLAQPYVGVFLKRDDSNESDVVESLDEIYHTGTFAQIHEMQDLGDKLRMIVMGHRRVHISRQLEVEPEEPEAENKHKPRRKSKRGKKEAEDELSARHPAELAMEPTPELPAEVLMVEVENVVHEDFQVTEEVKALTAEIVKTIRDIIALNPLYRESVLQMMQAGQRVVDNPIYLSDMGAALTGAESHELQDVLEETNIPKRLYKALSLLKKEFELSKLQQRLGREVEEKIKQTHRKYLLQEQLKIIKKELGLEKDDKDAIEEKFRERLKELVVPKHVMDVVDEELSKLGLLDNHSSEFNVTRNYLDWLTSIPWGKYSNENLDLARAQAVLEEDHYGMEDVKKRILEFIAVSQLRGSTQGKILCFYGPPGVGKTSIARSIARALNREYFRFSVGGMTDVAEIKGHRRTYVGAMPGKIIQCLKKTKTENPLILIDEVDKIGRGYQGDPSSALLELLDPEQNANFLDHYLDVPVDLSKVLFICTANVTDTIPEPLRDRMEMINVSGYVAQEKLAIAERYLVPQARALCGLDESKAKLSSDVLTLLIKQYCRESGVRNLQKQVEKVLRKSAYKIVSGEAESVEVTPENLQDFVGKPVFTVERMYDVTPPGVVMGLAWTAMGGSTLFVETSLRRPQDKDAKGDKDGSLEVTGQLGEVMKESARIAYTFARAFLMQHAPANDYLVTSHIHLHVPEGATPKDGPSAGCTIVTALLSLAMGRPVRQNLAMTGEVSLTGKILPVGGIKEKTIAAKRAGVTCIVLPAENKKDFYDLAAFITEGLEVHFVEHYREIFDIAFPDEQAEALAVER
The experiment in a line: FITC-casein fluorescent protease assay with immunopurified LonP1. Type of assay: biochemical.
For the molecule `Cc1cc(NC(C#N)C2=Cc3cc(Cl)cc(Cl)c3OC2c2ccccc2)ccc1B1OC(C)(C)C(C)(C)O1` (stereo not shown) [BT395], half-maximal inhibition (IC50) required 50 µM. With `CC1(C)OB(c2cccc(N(Cc3ccccc3)C(=O)CCl)c2)OC1(C)C` [BT399], the IC50 amounted to 124 µM. Then `Cc1cc(NC(C#N)C2=Cc3cc(Cl)cc(Cl)c3OC2c2ccccc2)ccc1[B-](F)(F)F` (stereo not shown) [BT397], with 34.5 µM. To `O=C(Nc1ccc(O)cc1)c1cc2cc(Cl)ccc2oc1=O` [BT317] belongs 31.2 µM.
